Patent publication US20100255580A1, “Differentiation of Human Embryonic Stem Cells” (LIFESCCAN, INC., priority 2007, published 2010)
Several values for one entry are separate records, joined by “and”; a condition that tells them apart may be missing. Equal values may be shown once.

Assays:
Assay type in all cases: cell-based
[1] = tested on: human embryonic stem cell line H9; test: Real-time PCR, H9 maintained on […] and differentiated on MEFs (Example 25); settings: Wnt3a 20 ng/ml added to 100 ng/ml activin A; increases over time
Protocol: (§1) Cells from the human embryonic stem cell line H9 cultured on […]™ for at least five passages were seeded onto MEF feeders in ES media.
(§2) At day 3 and 5, the cultures were analyzed by real time PCR for SOX-17, SOX-7, Alpha-fetal protein (AFP), CXCR4, Brychyury (Bry), gooscecoid (GSC), HNF-3 beta, GATA4, hTERT and Oct4. AFP and SOX-7 are regarded as visceral endoderm markers while GATA4, HNF-3beta and SOX-17 represent definite endoderm markers and GSC, Bry, and CXCR4 represent markers of primitive streak. hTERT and Oct-4 are markers for self renewal and pluripotency respectively. FACS analysis was also performed at day 3 and 5.

[2] = tested on: human embryonic stem cell line H9; test: Cytokine array analysis of cell lysates and conditioned media; set-up: key to BMP-4 expression / BMP-6 expression / EGF expression / FGF-6 expression / Fractalkine expression / GCP-2 expression / IL-3 expression / IL-4 expression / IL-6 expression / M-CSF expression / MIG expression / Amphiregulin expression: cytokine array signal, normalized and background-subtracted
Protocol: The effect that Wnt-3a treatment has on cytokine expression was analyzed using a protein array. Cells of the human embryonic stem cell line H9 were cultured according to the methods described in Example 15. At passage 54, cells were differentiated in the presence of 100 ng/ml ActivinA+/−10 ng/ml Wnt3a for 2 days in 0.5% FBS DMEM/F12. Cells were subsequently cultured for an additional three days in 100 ng/mlActivin A and 2% FBS DMEM/F12. At the end of the 5th day, CXCR4 expression was determined by FACS for each treatment group.
Cell lysates were prepared from cells of each treatment group, with a mammalian cell lysis kit (Sigma-Aldrich, MO). Conditioned media from each treatment group was collected and concentrated. Cytokine array analysis was completed using Cytokine Array panels provided by RayBiotech, GA (http://www.raybiotech.com/). Table VII lists cytokine, growth factor, and receptor expression following normalization of the data and background subtraction. For each panel, positive and negative controls are also included. Th data shown are two independent samples per cell treatment group (1,2).

[3] = tested on: human embryonic stem cell line H9; test: FACS of CXCR4 and CD9, H9 maintained on […] and differentiated on MEFs (Example 25); settings: for CXCR4 positive cells (FACS): without (label Activin A) or with Wnt3a
Protocol: Adhered cells were removed from culture plates by five-minute incubation with TrypLE™ Express solution (Invitrogen, CA). Released cells were resuspended in human embryonic stem cell culture medium and recovered by centrifugation, followed by washing and resuspending the cells in a staining buffer consisting of 2% BSA, 0.05% sodium azide in PBS (Sigma, MO). As appropriate, the cells were Fc-receptor blocked for 15 minutes using a 0.1% γ-globulin (Sigma) solution. […] Controls included appropriate isotype matched antibodies, unstained cells, and cells stained only with secondary conjugated antibody. All incubations with antibodies were performed for 30 mins at 4° C. after which the cells were washed with the staining buffer. Samples that were stained with unconjugated primary antibodies were incubated for an additional 30 mins at 4° C. with secondary conjugated PE or -APC labeled antibodies. See Table I for a list of secondary antibodies used. Washed cells were pelleted and resuspended in the staining buffer, and the cell surface molecules were identified using a FACS Array (BD Biosciences) instrument, collecting at least 10,000 events.
as §1, §2

Wnt-3a
AFP expression [1]: increase in the expression of AFP | 1L-1beta expression ([2]; Cell conditioned media): 316.59 and 278.30 | 1L-1ra expression ([2]; Cell conditioned media): 354.23 and 581.75 | Acrp30 expression ([2]; Cell conditioned media): 2,795.71 and 2,302.99 | AgRP expression ([2]; Cell conditioned media): 651.26 and 482.21 | Amphiregulin expression ([2]; Cell conditioned media): 619.07 and 782.60 | Angiogenin expression ([2]; Cell conditioned media): 57,442.48 and 54,969.04 | Angiopoietin-2 expression ([2]; Cell conditioned media): 65,959.24 and 71,664.21 | AxI expression ([2]; Cell conditioned media): 610.40 and 748.34 | BDNF expression ([2]; Cell conditioned media): 770.08 and 715.86 | BLC expression ([2]; Cell conditioned media): 337.12 and 249.80 | BMP-6 expression ([2]; Cell conditioned media): 985.70 and 670.60 | CK beta 8-1 expression ([2]; Cell conditioned media): 42.78 and 75.44 | CNTF expression ([2]; Cell conditioned media): 787.19 and 541.51 | EGF expression ([2]; Cell conditioned media): 23,331.57 and 22,768.53 | Eotaxin-2 expression ([2]; Cell conditioned media): 2,156.21 and 1,445.14 | Eotaxin-3 expression ([2]; Cell conditioned media): 2,140.81 and 1,480.35 | FGF-6 expression ([2]; Cell conditioned media): 3,283.94 and 2,519.78 | Flt-3 Ligand expression ([2]; Cell conditioned media): 511.67 and 792.98 | Fractalkine expression ([2]; Cell conditioned media): 359.37 and 367.15 | GCP-2 expression ([2]; Cell conditioned media): 451.78 and 362.12 | GDNF expression ([2]; Cell conditioned media): 443.22 and 509.66 | GM-CSF expression ([2]; Cell conditioned media): 1,808.82 and 1,446.82 | I-309 expression ([2]; Cell conditioned media): 318.30 and 288.36 | IFN-gamma expression ([2]; Cell conditioned media): 1,238.97 and 1,435.08 | IGF-I expression ([2]; Cell conditioned media): 254.98 and 187.77 | IGFBP-1 expression ([2]; Cell conditioned media): 227.60 and 155.91 | IGFBP-2 expression ([2]; Cell conditioned media): 42,215.53 and 43,934.33 | IGFBP-4 expression ([2]; Cell conditioned media): 18,988.34 and 13,380.14 | IL-1alpha expression ([2]; Cell conditioned media): 3,999.26 and 3,545.79 | IL-2 expression ([2]; Cell conditioned media): 758.10 and 881.84 | IL-3 expression ([2]; Cell conditioned media): 11,345.78 and 12,174.73 | IL-4 expression ([2]; Cell conditioned media): 804.30 and 673.95 | IL-5 expression ([2]; Cell conditioned media): 2,120.27 and 1,713.38 | IL-6 expression ([2]; Cell conditioned media): 9,774.82 and 9,991.93 | IL-10 expression ([2]; Cell conditioned media): 1,625.71 and 1,129.96 | IL-13 expression ([2]; Cell conditioned media): 2,522.42 and 1,807.27 | IL-15 expression ([2]; Cell conditioned media): 2,495.04 and 1,981.62 | IL-16 expression ([2]; Cell conditioned media): 436.38 and 405.71 | LIGHT expression ([2]; Cell conditioned media): 1,346.78 and 1,108.17 | Leptin expression ([2]; Cell conditioned media): 7,238.71 and 4,886.99 | M-CSF expression ([2]; Cell conditioned media): 740.98 and 684.01 | MCP-1 expression ([2]; Cell conditioned media): 2,015.89 and 1,567.53 | MCP-2 expression ([2]; Cell conditioned media): 694.78 and 694.07 | MCP-3 expression ([2]; Cell conditioned media): 701.62 and 583.42 | MCP-4 expression ([2]; Cell conditioned media): 231.02 and 276.62 | MIP-1-delta expression ([2]; Cell conditioned media): 474.02 and 291.71 | MIP-3-alpha expression ([2]; Cell conditioned media): 208.78 and 184.41 | NAP-2 expression ([2]; Cell conditioned media): 371.35 and 343.68 | NT-3 expression ([2]; Cell conditioned media): 571.57 and 427.51 | PARC expression ([2]; Cell conditioned media): 474.02 and 363.80 | PDGF-BB expression ([2]; Cell conditioned media): 2,635.37 and 2,005.09 | RANTES expression ([2]; Cell conditioned media): 682.80 and 855.01 | SCF expression ([2]; Cell conditioned media): 1,394.69 and 2,155.98 | SDF-1 expression ([2]; Cell conditioned media): 326.85 and 616.95 | TGF-beta 1 expression ([2]; Cell conditioned media): 1,827.65 and 1,849.18 | TGF-beta 3 expression ([2]; Cell conditioned media): 294.34 and 343.68 | TNF-alpha expression ([2]; Cell conditioned media): 2,609.70 and 2,167.71 | TNF-beta expression ([2]; Cell conditioned media): 1,701.01 and 1,637.94 | bFGF expression ([2]; Cell conditioned media): 1,226.99 and 1,241.09 | 1L-1beta expression ([2]; Cell lysate): 352.05 and 312.08 | 1L-1ra expression ([2]; Cell lysate): 302.68 and 198.48 | Acrp30 expression ([2]; Cell lysate): 601.61 and 690.66 | AgRP expression ([2]; Cell lysate): 77.82 and 89.00 | Angiogenin expression ([2]; Cell lysate): 619.40 and 750.85 | AxI expression ([2]; Cell lysate): 88.59 and 139.03 | BDNF expression ([2]; Cell lysate): 763.51 and 951.45 | BLC expression ([2]; Cell lysate): 742.24 and 476.36 | BMP-4 expression ([2]; Cell lysate): 348.44 and 304.48 | BMP-6 expression ([2]; Cell lysate): 571.23 and 641.05 | CK beta 8-1 expression ([2]; Cell lysate): 22.48 and 21.54 | CNTF expression ([2]; Cell lysate): 1,382.51 and 1,060.82 | EGF expression ([2]; Cell lysate): 742.24 and 984.39 | Eotaxin expression ([2]; Cell lysate): 301.87 and 253.80 | Eotaxin-3 expression ([2]; Cell lysate): 934.12 and 847.56 | Flt-3 Ligand expression ([2]; Cell lysate): 857.45 and 795.19 | Fractalkine expression ([2]; Cell lysate): 792.02 and 456.51 | GCP-2 expression ([2]; Cell lysate): 593.71 and 538.86 | GDNF expression ([2]; Cell lysate): 436.75 and 444.68 | GM-CSF expression ([2]; Cell lysate): 1,343.17 and 1,161.75 | I-309 expression ([2]; Cell lysate): 708.52 and 743.25 | IFN-gamma expression ([2]; Cell lysate): 1,202.67 and 1,037.60 | IGFBP-1 expression ([2]; Cell lysate): 59.41 and 85.73 | IGFBP-2 expression ([2]; Cell lysate): 2,671.90 and 2,414.72 | IGFBP-4 expression ([2]; Cell lysate): 4,459.85 and 4,173.19 | IL-1alpha expression ([2]; Cell lysate): 1,612.93 and 1,421.89 | IL-3 expression ([2]; Cell lysate): 2,119.94 and 1,497.48 | IL-4 expression ([2]; Cell lysate): 625.42 and 638.94 | IL-5 expression ([2]; Cell lysate): 1,245.23 and 1,167.24 | IL-10 expression ([2]; Cell lysate): 1,222.75 and 1,096.30 | IL-13 expression ([2]; Cell lysate): 1,486.89 and 1,407.96 | IL-15 expression ([2]; Cell lysate): 1,677.16 and 1,601.79 | IL-16 expression ([2]; Cell lysate): 651.11 and 668.50 | Leptin expression ([2]; Cell lysate): 1,234.39 and 1,091.65 | M-CSF expression ([2]; Cell lysate): 852.63 and 867.83 | MCP-1 expression ([2]; Cell lysate): 1,022.03 and 1,076.03 | MCP-3 expression ([2]; Cell lysate): 1,184.61 and 1,255.50 | MCP-4 expression ([2]; Cell lysate): 1,380.51 and 1,606.86 | MDC expression ([2]; Cell lysate): 269.36 and 280.41 | MIG expression ([2]; Cell lysate): 1,113.16 and 1,137.26 | MIP-1-delta expression ([2]; Cell lysate): 491.75 and 322.22 | MIP-3-alpha expression ([2]; Cell lysate): 1,602.09 and 1,399.93 | NT-3 expression ([2]; Cell lysate): 316.73 and 275.76 | PARC expression ([2]; Cell lysate): 352.85 and 353.04 | PDGF-BB expression ([2]; Cell lysate): 517.84 and 597.56 | RANTES expression ([2]; Cell lysate): 724.98 and 637.25 | SCF expression ([2]; Cell lysate): 1,152.50 and 1,021.13 | TARC expression ([2]; Cell lysate): 372.93 and 343.33 | TGF-beta 1 expression ([2]; Cell lysate): 1,426.67 and 1,240.30 | TNF-alpha expression ([2]; Cell lysate): 2,851.74 and 1,285.91 | TNF-beta expression ([2]; Cell lysate): 1,049.33 and 1,026.62 | bFGF expression ([2]; Cell lysate): 11,722.95 and 21,398.52 | IGFBP-1, TGFbeta-1 and TGFbeta-3 in cell lysates ([2]; Wnt3a treated vs Activin A only): upregulated | Angiogenin, IGFBP-1 and EGF in cell conditioned media ([2]; Wnt3 treated vs Activin A only): Noticeable upregulation | role in differentiation of human embryonic stem cells, cultured on MEFs, to definitive endoderm [3]: does not appear to play a significant role | CXCR4 positive cells (FACS) ([3]; day 3, high concentration of Activin A): 23-33% | CXCR4 positive cells (FACS) ([3]; day 5, high concentration of activin A): 43-51%
